Assay results from patent US5360818A, “1,3-dioxane derivatives having protein kinase C inhibitory activity” (Sphinx Pharmaceuticals Corporation, priority 1993, dated 1994).

Columns and labels:
[1] = test system: MCF-7/ADR adriamycin resistant line of MCF-7 cells; assay: Human tumor cell growth inhibition (3H-thymidine incorporation), MCF-7/ADR; format: cell-based; details: NCI/ADR-RES, 18 to 24 hrs
From the text: (§1) MCF-7 a human breast tumor cell line and MCF-7/ADR an adriamycin resistant line of MCF-7 cells were obtained from the National Cancer Institute, Frederick, Md. CEM cells (ATCC accession number CCL 119) were obtained from the American Type Culture Collection, Rockville, Md.
(§2) Human tumor cells were trypsinized with 0.05% trypsin (GIBCO), counted with a hemacytometer and seeded at a concentration of 10,000 cells/well in a 96 well microtiter plate. After allowing cells to attach to the surface overnight, the culture medium was aspirated and replaced with 100 μl of fresh medium. Test agents were diluted to determine dose response at 2X final concentration and added in quadruplicate at 100 μl/well to bring the total volume of each well to 200 μl. The microtiter plate was then incubated at 37° C. 5% CO2 overnight for 18 to 24 hrs before ^3 H-thymidine was added at a concentration of 0.5 μCi/well in 50 μl culture medium. The plate was incubated again for 4 hrs under the same conditions as above. Supernatant was then aspirated and 50 μl of 0.05% trypsin (GIBCO) was added to each well.
(§3) Cells were checked microscopically to determine detachment from surfaces, and plates were then harvested with a cell harvester (PHD, Cambridge Technology, Inc.) Filter papers corresponding to wells were placed in scintillation vials and counted to determine the amount of ^3 H-thymidine incorporated by the cells. Test agent response was compared to a positive control of cell wells with culture media only to determine the IC50. IC50 is the concentration of test compound required to inhibit fifty percent of the incorporation of ^3 H-thymidine into proliferating cells not exposed to test agent. Uptake of 3H-thymidine is a standard test for measuring the metabolism of cells. Cells which are actively proliferating take up ^3 H-thymidine whereas cells that are not proliferating take up ^3 H-thymidine at much slower rates or not at all. Test agents that inhibit the uptake of ^3 H-thymidine thus slow the growth of cells.

[2] = test system: MCF-7 human breast tumor cell line; assay: Human tumor cell growth inhibition (3H-thymidine incorporation), MCF-7; format: cell-based; details: MCF7, 18 to 24 hrs
From the text: as §1, §2, §3

[3] = biological target: T1, cAMP dependent protein kinase (PKA) (Bos taurus, UniProt P00517); assay: cAMP dependent protein kinase (PKA) assay; format: biochemical; details: 4.3, 43 and 218 μM; 10 min
T1 construct: no regulatory subunit
Description: Compounds found to be inhibitors of protein kinase C were tested for inhibitory activity against cAMP dependent protein kinase (PKA). This enzyme, like protein kinase C, plays an important role in cell-cell communication and is activated by a second messenger, cAMP. Secondary screening against PKA is useful for ascertaining the selectivity of the compounds of the invention. The catalytic subunit of PKA (Sigma Chemical Company, St. Louis, Mo.) was mixed with buffer before addition of the inhibitor in dimethylsulfoxide (DMSO). Potential inhibitor compounds were added to the assay in dimethylsulfoxide at three concentrations to give final inhibitor concentrations of 4.3, 43 and 218 μM, respectively. The assay was started by the addition of 32P-ATP and the reaction was allowed to proceed for 10 min before stopping with 25% trichloroacetic acid (TCA) and 1.0 mg/ml bovine serum albumin (BSA). Phosphorylated protein was then isolated by filtration and the radioactivity was counted in a beta scintillation counter.

[4] = biological target: protein kinase C; assay: Protein kinase C inhibition assay (histone H1 phosphorylation); format: biochemical; details: rat brain enzyme; histone H1 substrate; 10 min
Description: A protein kinase C (PKC) assay is designed to duplicate the in vivo conditions required for protein kinase C function. Therefore, pH, salt and cofactor concentrations are similar to physiologic levels. A lysine rich histone, H1, was used in the assay as the phosphorylation acceptor-proteinbecause it is readily available and serves as a good substrate for protein kinase C. Enzyme was prepared from rat brain and purified to apparent homogeneity as determined by a single band on silver stained SDS-polyacrylamide.
In the screening assay, phosphatidylserine (PS) and DAG were co-sonicated to form unilamellar and multilamellar vesicles. The concentration of lipids in the assay were suboptimal to maximize the detection potential of the assay for inhibitors. Potential inhibitor compounds were added to the assay in dimethylsulfoxide at three concentrations to give final inhibitor concentrations of 4.3, 43 and 218 μM, respectively. The assay was started with the addition of enzyme and stopped after 10 min by the addition of 25% trichloroacetic acid (TCA) and 1.0 mg/ml bovine serum albumin (BSA). The radioactive histone product was retained and washed on glass fiber filters that allow the unreacted ^32 p-ATP to pass through. The amount of phosphorylation was determined by the radioactivity measured in a scintillation counter. Controls were included in every assay to measure background activity in the absence of enzyme, activity in the absence of lipids, and the maximum enzyme activity with saturating levels of the activator lipids.
Results of the protein kinase C assay are shown in Table 3 in the column labeled PKC. Results are shown as IC50, which is the concentration of test compound needed to inhibit 50% of the protein kinase C activity as compared with levels of protein kinase C activity in controls.

[5] = test system: PMA-stimulated neutrophils; assay: Neutrophil superoxide anion release assay; format: cell-based; details: Homo sapiens, 0.5 h, 37° C., 30 minutes, cytochrome c reduction
Description: Neutrophils were isolated form whole blood collected from human volunteers. All reagent materials are obtained from Sigma Chemical Company with the exception of isotonic saline (Travenol Laboratories, Inc., Deerfield, Ill.) and lymphocyte separation medium (Organon Teknika, Durham, N.C.).
Whole blood was drawn and mixed with sodium heparin to a final concentration of 10 units/ml to prevent clotting. An equal volume of 3.0 % dextran in isotonic saline was added, mixed, and allowed to settle for 30 minutes to bind red blood cells (RBC). Supernatant was removed, underlayered with lymphocyte separation medium and centrifuged for 40 min at 400 xg in a centrifuge (Beckman GPR, Norcross, Ga.). The pellet was alternately taken up in 0.2% and 1.6% NaCl to lyse RBCs before washing with Hank's Balanced Salt Solution (HBSS). […]
The neutrophil cell concentration was adjusted to 2×10^6 cells/ml with HBSS before adding 0.8 ml cells to 12×75 mm polypropylene test tubes (Fisher Scientific). […] Optical density (OD) of cytochrome c was read in a spectrophotometer (Shimadzu) at 550 nm. […] Reducing cytochrome c increases its absorbance, and the change in OD of cytochrome c is proportional to the amount of […] produced by PMA stimulation. […] Inhibition is expressed as IC50 μM and is the amount of test compound that will inhibit fifty percent of the PMA-stimulated respiratory outburst, i.e. […] production.

[6] = test system: keratinocytes (NHEK cells); assay: Human keratinocyte inhibition (3H-thymidine incorporation); format: cell-based
From the text: as §3
Proliferating keratinocytes (NHEK cells purchased from Clonetics, Inc., San Diego, Calif.) in second passage were grown in Keratinocyte Growth Medium (KGM) (Clonetics, Inc.) Cells were trypsinized (0.025% trypsin, Clonetics), counted with a hemacytometer (Scientific Products), and seeded at a concentration of 2,500 cells/well in a 96 well microtiter plate. After allowing cells to attach to the surface overnight, the culture medium was aspirated and replaced with 100 μl of fresh KGM. Test agents were evaluated and IC50 's were determined according to the ^3 H-thymidine incorporation procedures described as in Example 18. IC50 is the concentration of test compound required to inhibit fifty percent of the incorporation of ^3 H-thymidine into proliferating cells not exposed to test agent.

Row | Compound | IC50 [1] [µM] | IC50 [2] [µM] | inhibitory activity against cAMP dependent protein kinase (PKA) [3] | IC50 [4] [µM] | IC50 [5] [µM] | IC50 [6] [µM]
1 | CCCCCCCCCCCCCCC[C@@H]1OC(C)(C)OC[C@H]1N (relative stereo) [Compound 5, Erythro-2,2-dimethyl-5-amino-4-pentadecyl-1,3-dioxane] | 6.6 | 7.7 | no effect on PKA activity | 130 | 13.1 | –
2 | CCCCCCCCCCCCCCC[C@@H]1OC(C)(C)OC[C@@H]1N (relative stereo) [Compound 6, 2,2-Dimethyl-5-amino-4-pentadecyl-1,3-dioxane] | 5.5 | 6 | no effect on PKA activity | 120 | – | 4.7
3 | CCCCCCCCCCCCCCC[C@@H]1OC(C)(C)OC[C@H]1NC(C)=N (relative stereo) [Compound 10, Erythro-5-Acetamidino-2,2-dimethyl-4-pentadecyl-1,3-dioxane] | – | – | no effect on PKA activity | 29 | 1.52 | –
4 | CCCCCCCCCCCCCCCC(O)C(CO)[N+](=O)[O-] (stereo not drawn) [Compound 3, Threo/erythro-2-Nitro-1,3-octadecanediol] | – | – | – | – | – | 6.5
5 | CCCCCCCCCCCCCCC[C@H](O)[C@H](CO)NC(=O)OC(C)(C)C [Compound 11, Tert-Butyl (1S, 2S)-N-[2-hydroxy-1-(hydroxymethyl)heptadecyl]carbamate] | – | 3.2 | – | – | – | 0.8
6 | CCCCCCCCCCCCCCC[C@@H]1OC(C)(C)OC[C@@H]1N [Compound 13, Threo-(2S, 3S) -5-Amino-2,2-dimethyl-4-pentadecyl-1,3-dioxane] | 6.3 | 5.1 | no effect on PKA activity | 121 | – | –
7 | CCCCCCCCCCCCCCC[C@@H]1OC(C)OC[C@@H]1N (stereo partly drawn) [Compound 18, Threo-5-Amino-2-methyl-4-pentadecyl-1,3-dioxane] | – | – | no effect on PKA activity | 64 | – | –
8 | CCCCCCCCCCCCCCC[C@@H]1OC(c2ccccc2)OC[C@@H]1N (stereo partly drawn) [Compound 19, Threo-5-Amino-2-phenyl-4-pentadecyl-1,3-dioxane] | – | – | no effect on PKA activity | 182 | – | –
9 | CCCCCCCCCCCCCCCC1OCOCC1N (stereo not shown) [Compound 24] | – | – | – | 83 | – | –
